Test results: PubChem BioAssay AID1259407 (Chemical Carcinogenesis Research Information System (CCRIS), 2018)
The source made the active and inactive calls. The rule behind the calls is not given here.

Tested on: CCRIS mutagenicity, Ames/micronucleus/aberration tests
Experiment: CCRIS mutagenicity studies
[1] = Test System: AMES SALMONELLA TYPHIMURIUM, Strain/Indicator: TA98, Metabolic Activation: NONE, Method: STANDARD PLATE
[2] = Test System: AMES SALMONELLA TYPHIMURIUM, Strain/Indicator: TA100, Metabolic Activation: NONE, Method: STANDARD PLATE
[3] = Test System: AMES SALMONELLA TYPHIMURIUM, Strain/Indicator: TA98, Metabolic Activation: RAT LIVER S-9, AROCLOR 1254, Method: STANDARD PLATE
[4] = Test System: AMES SALMONELLA TYPHIMURIUM, Strain/Indicator: TA100, Metabolic Activation: RAT LIVER S-9, AROCLOR 1254, Method: STANDARD PLATE

`O=C=NCCCCCCN=C=O` was tested, and the mutagenic call (Test System: AMES SALMONELLA TYPHIMURIUM, Strain/Indicator: TA98, Metabolic Activation: NONE, Method: DESICCATOR) was “inactive; negative”, the mutagenic call (Test System: AMES SALMONELLA TYPHIMURIUM, Strain/Indicator: TA98, Metabolic Activation: NONE, Method: PREINCUBATION) was “inactive; negative” and the mutagenic call (Test System: AMES SALMONELLA TYPHIMURIUM, Strain/Indicator: TA98, Metabolic Activation: RAT LIVER S-9, AROCLOR 1254 (10%), Method: DESICCATOR) was “inactive; negative”. For the same compound, the mutagenic call (Test System: AMES SALMONELLA TYPHIMURIUM, Strain/Indicator: TA98, Metabolic Activation: RAT, LIVER, S-9, SODIUM PHENOBARBITAL AND 5,6-BENZOFLAVONE, Method: PREINCUBATION) was “inactive; negative”, the mutagenic call (Test System: AMES SALMONELLA TYPHIMURIUM, Strain/Indicator: TA100, Metabolic Activation: NONE, Method: DESICCATOR) was “inactive; negative” and the mutagenic call (Test System: AMES SALMONELLA TYPHIMURIUM, Strain/Indicator: TA100, Metabolic Activation: NONE, Method: PREINCUBATION) was “inactive; negative”. For the same compound, the mutagenic call (Test System: AMES SALMONELLA TYPHIMURIUM, Strain/Indicator: TA100, Metabolic Activation: RAT LIVER S-9, AROCLOR 1254 (10%), Method: DESICCATOR) was “inactive; negative”, the mutagenic call (Test System: AMES SALMONELLA TYPHIMURIUM, Strain/Indicator: TA100, Metabolic Activation: RAT, LIVER, S-9, SODIUM PHENOBARBITAL AND 5,6-BENZOFLAVONE, Method: PREINCUBATION) was “inactive; negative” and the mutagenic call (Test System: AMES SALMONELLA TYPHIMURIUM, Strain/Indicator: TA102, Metabolic Activation: NONE, Method: PREINCUBATION) was “inactive; negative”. The mutagenic call (Test System: AMES SALMONELLA TYPHIMURIUM, Strain/Indicator: TA102, Metabolic Activation: RAT, LIVER, S-9, SODIUM PHENOBARBITAL AND 5,6-BENZOFLAVONE, Method: PREINCUBATION) was “inactive; negative”, the mutagenic call (Test System: AMES SALMONELLA TYPHIMURIUM, Strain/Indicator: TA104, Metabolic Activation: NONE, Method: PREINCUBATION) was “inactive; negative” and the mutagenic call (Test System: AMES SALMONELLA TYPHIMURIUM, Strain/Indicator: TA104, Metabolic Activation: RAT, LIVER, S-9, SODIUM PHENOBARBITAL AND 5,6-BENZOFLAVONE, Method: PREINCUBATION) was “inactive; negative”. For the same compound, the mutagenic call (Test System: AMES SALMONELLA TYPHIMURIUM, Strain/Indicator: TA1535, Metabolic Activation: NONE, Method: DESICCATOR) was “inactive; negative”, the mutagenic call (Test System: AMES SALMONELLA TYPHIMURIUM, Strain/Indicator: TA1535, Metabolic Activation: NONE, Method: PREINCUBATION) was “inactive; negative” and the mutagenic call (Test System: AMES SALMONELLA TYPHIMURIUM, Strain/Indicator: TA1535, Metabolic Activation: RAT LIVER S-9, AROCLOR 1254 (10%), Method: DESICCATOR) was “inactive; negative”. The mutagenic call (Test System: AMES SALMONELLA TYPHIMURIUM, Strain/Indicator: TA1535, Metabolic Activation: RAT, LIVER, S-9, SODIUM PHENOBARBITAL AND 5,6-BENZOFLAVONE, Method: PREINCUBATION) was “inactive; negative”, the mutagenic call (Test System: AMES SALMONELLA TYPHIMURIUM, Strain/Indicator: TA1537, Metabolic Activation: NONE, Method: DESICCATOR) was “inactive; negative” and the mutagenic call (Test System: AMES SALMONELLA TYPHIMURIUM, Strain/Indicator: TA1537, Metabolic Activation: NONE, Method: PREINCUBATION) was “inactive; negative”. The mutagenic call (Test System: AMES SALMONELLA TYPHIMURIUM, Strain/Indicator: TA1537, Metabolic Activation: RAT LIVER S-9, AROCLOR 1254 (10%), Method: DESICCATOR) was “inactive; negative”, the mutagenic call (Test System: AMES SALMONELLA TYPHIMURIUM, Strain/Indicator: TA1537, Metabolic Activation: RAT, LIVER, S-9, SODIUM PHENOBARBITAL AND 5,6-BENZOFLAVONE, Method: PREINCUBATION) was “inactive; negative” and the mutagenic call (Test System: CHINESE HAMSTER OVARY CELLS, Strain/Indicator: CHO/HGPRT/6-THIOGUANINE, Metabolic Activation: NONE, Method: DESICCATOR) was “inactive; negative”. For the same compound, the mutagenic call (Test System: CHINESE HAMSTER OVARY CELLS, Strain/Indicator: CHO/HGPRT/6-THIOGUANINE, Metabolic Activation: RAT LIVER S-9, AROCLOR 1254 (10%), Method: DESICCATOR) was “inactive; negative”, the mutagenic call (Test System: E. COLI, Strain/Indicator: WP2UVRA/PKM101, Metabolic Activation: NONE, Method: PREINCUBATION) was “inactive; negative” and the mutagenic call (Test System: E. COLI, Strain/Indicator: WP2UVRA/PKM101, Metabolic Activation: RAT, LIVER, S-9, SODIUM PHENOBARBITAL AND 5,6-BENZOFLAVONE, Method: PREINCUBATION) was “inactive; negative”. The mutagenic call (Test System: E. COLI, Strain/Indicator: WP2UVRA, Metabolic Activation: NONE, Method: PREINCUBATION) was “inactive; negative” and the mutagenic call (Test System: E. COLI, Strain/Indicator: WP2UVRA, Metabolic Activation: RAT, LIVER, S-9, SODIUM PHENOBARBITAL AND 5,6-BENZOFLAVONE, Method: PREINCUBATION) was “inactive; negative”.
`CC(C)COP(=S)(OCC(C)C)SCCl` was tested, and the mutagenic call (Test System: AMES SALMONELLA TYPHIMURIUM, Strain/Indicator: TA98, Metabolic Activation: NONE) was “inactive; negative”, the mutagenic call [1] was “inactive; negative” and the mutagenic call (Test System: AMES SALMONELLA TYPHIMURIUM, Strain/Indicator: TA98, Metabolic Activation: RAT, LIVER, S-9, SODIUM PHENOBARBITAL, Method: STANDARD PLATE) was “inactive; negative”. The mutagenic call (Test System: AMES SALMONELLA TYPHIMURIUM, Strain/Indicator: TA98, Metabolic Activation: S-9) was “inactive; negative”, the mutagenic call (Test System: AMES SALMONELLA TYPHIMURIUM, Strain/Indicator: TA100, Metabolic Activation: NONE) was “inactive; negative” and the mutagenic call [2] was “inactive; negative”. For the same compound, the mutagenic call (Test System: AMES SALMONELLA TYPHIMURIUM, Strain/Indicator: TA100, Metabolic Activation: RAT, LIVER, S-9, SODIUM PHENOBARBITAL, Method: STANDARD PLATE) was “inactive; negative”, the mutagenic call (Test System: AMES SALMONELLA TYPHIMURIUM, Strain/Indicator: TA100, Metabolic Activation: S-9) was “inactive; negative” and the mutagenic call (Test System: E. COLI, Strain/Indicator: WP2, Metabolic Activation: NONE) was “inactive; negative”. For the same compound, the mutagenic call (Test System: E. COLI, Strain/Indicator: WP2, Metabolic Activation: RAT, LIVER, S-9, SODIUM PHENOBARBITAL, Method: STANDARD PLATE) was “inactive; negative”, the mutagenic call (Test System: E. COLI, Strain/Indicator: WP2, Metabolic Activation: S-9) was “inactive; negative” and the mutagenic call (Test System: E. COLI, Strain/Indicator: WP2 UVRA, Metabolic Activation: NONE) was “inactive; negative”. For the same compound, the mutagenic call (Test System: E. COLI, Strain/Indicator: WP2 UVRA, Metabolic Activation: RAT, LIVER, S-9, SODIUM PHENOBARBITAL, Method: STANDARD PLATE) was “inactive; negative” and the mutagenic call (Test System: E. COLI, Strain/Indicator: WP2 UVRA, Metabolic Activation: S-9) was “inactive; negative”.
With `COc1ccc2[nH]c3c(C)cc(N)c(C)c3c2c1` the mutagenic call [1] was “inactive; negative”, the mutagenic call [3] was “active; positive” and the mutagenic call [2] was “inactive; negative”. The mutagenic call [4] was “inactive; negative”.
In the case of `Cc1ccc2[nH]c3c(C)cc([N+](=O)[O-])c(C)c3c2c1`, the mutagenic call [1] was “active; positive”, the mutagenic call [3] was “active; positive” and the mutagenic call [2] was “inactive; negative”. For the same compound, the mutagenic call [4] was “inactive; negative”, the mutagenic call (Test System: AMES SALMONELLA TYPHIMURIUM, Strain/Indicator: TA1537, Metabolic Activation: RAT LIVER S-9, AROCLOR 1254, Method: STANDARD PLATE) was “active; positive” and the mutagenic call (Test System: AMES SALMONELLA TYPHIMURIUM, Strain/Indicator: TA1977, Metabolic Activation: NONE, Method: STANDARD PLATE) was “inactive; negative”. The mutagenic call (Test System: AMES SALMONELLA TYPHIMURIUM, Strain/Indicator: TA1977, Metabolic Activation: RAT LIVER S-9, AROCLOR 1254, Method: STANDARD PLATE) was “active; positive”.
